Assay results published in the supplement of paper PMC7244745.
Where a name gives a salt, the structure may show the parent alone. ± gives the uncertainty stated by the source.

Tests used:
[1] = test system: Klebsiella pneumoniae ATCC 13882; assay: final pH-related absorbance (A557-A630) after 24 h (absorbance units); higher = more ureolysis; extreme values may be limits of the assay
Protocol: (§1)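 Klebsiella pneumoniae ATCC 13882 (start OD600 0.05) grown in M9U medium with 40 mM urea and phenol red plus inhibitor, in triplicate in 96-well plates. A557 and OD630 were read every 15 min for 24 h. Ureolysis was followed as the pH-related A557-A630: onset time, Gompertz-fit rate and final value. Growth was followed as OD630.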

[2] = test system: Klebsiella pneumoniae ATCC 13882; assay: rate of pH (A557-A630) increase, Gompertz fit (10^-4 s-1); higher = faster ureolysis; extreme values may be limits of the assay
Protocol: as §1

[3] = test system: Klebsiella pneumoniae ATCC 13882; assay: final OD630 (growth) after 24 h; higher = more bacterial growth; extreme values may be limits of the assay
Protocol: as §1

[4] = test system: Klebsiella pneumoniae ATCC 13882; assay: onset of ureolytic pH increase; higher = more delayed ureolysis (inhibition)
Protocol: as §1

| SMILES | final pH-related absorbance ([1]; 0.1 mM) | final pH-related absorbance ([1]; 1 mM) | final pH-related absorbance ([1]; 10 mM) | rate of pH ([2]; 0.1 mM) | rate of pH ([2]; 1 mM) | rate of pH ([2]; 10 mM) | final OD630 ([3]; 0.1 mM) | final OD630 ([3]; 1 mM) | final OD630 ([3]; 10 mM) | onset of ureolytic pH increase ([4]; 0.1 mM) [h] | onset of ureolytic pH increase ([4]; 1 mM) [h] | onset of ureolytic pH increase ([4]; 10 mM) | further results |
| --- | --- | --- | --- | --- | --- | --- | --- | --- | --- | --- | --- | --- | --- |
| S=C=S [Carbon disulfide] |  |  |  |  |  |  |  |  |  |  |  |  | final pH-related absorbance ([1]; 0.0285 mM): 0.169 ± 0.0022; final pH-related absorbance ([1]; 0.285 mM): 0.175 ± 0.0006; final pH-related absorbance ([1]; 2.85 mM): 0.175 ± 0.0058; rate of pH ([2]; 0.0285 mM): 1.547 ± 0.011; rate of pH ([2]; 0.285 mM): 1.537 ± 0.0055; rate of pH ([2]; 2.85 mM): 1.561 ± 0.0093; final OD630 ([3]; 0.0285 mM): 0.416 ± 0.0039; final OD630 ([3]; 0.285 mM): 0.428 ± 0.0051; final OD630 ([3]; 2.85 mM): 0.419 ± 0.0062; onset of ureolytic pH increase ([4]; 0.0285 mM): 10.26 ± 0.0115 h; onset of ureolytic pH increase ([4]; 0.285 mM): 10.2 ± 0.0433 h; onset of ureolytic pH increase ([4]; 2.85 mM): 10.24 ± 0.07 h |
| CN(CC(=O)O)C(=N)N [Creatine monohydrate] |  |  |  |  |  |  |  |  |  |  |  |  | final pH-related absorbance ([1]; 0.0026 mM): 0.217 ± 0.0008; final pH-related absorbance ([1]; 0.026 mM): 0.22 ± 0.0025; final pH-related absorbance ([1]; 0.26 mM): 0.22 ± 0.0028; rate of pH ([2]; 0.0026 mM): 1.73 ± 0.023; rate of pH ([2]; 0.026 mM): 1.73 ± 0.059; rate of pH ([2]; 0.26 mM): 1.78 ± 0.032; final OD630 ([3]; 0.0026 mM): 0.503 ± 0.012; final OD630 ([3]; 0.026 mM): 0.496 ± 0.0032; final OD630 ([3]; 0.26 mM): 0.497 ± 0.0049; onset of ureolytic pH increase ([4]; 0.0026 mM): 9.537 ± 0.0367 h; onset of ureolytic pH increase ([4]; 0.026 mM): 9.59 ± 0.147 h; onset of ureolytic pH increase ([4]; 0.26 mM): 9.419 ± 0.0783 h |
| CN1CC(=O)NC1=N [Creatinine] | 0.146 ± 0.0004 | 0.158 ± 0.0061 | 0.157 ± 0.005 | 2.186 ± 0.011 | 2.17 ± 0.023 | 2.19 ± 0.038 | 0.505 ± 0.0042 | 0.495 ± 0.013 | 0.517 ± 0.0028 | 9.588 ± 0.07 | 9.675 ± 0.0283 | 9.58 ± 0.14 h |  |
| NCCS [Cysteamine hydrochloride] | 0.256 ± 0.0053 | 0.246 ± 0.0058 | 0.097 ± 0.0002 | 1.44 ± 0.07 | 0.893 ± 0.012 | 0.736 ± 0.0043 | 0.5 ± 0.0053 | 0.487 ± 0.0016 | 0.447 ± 0.0027 | 8.51 ± 0.103 | 10.12 ± 0.02 | 15.19 ± 0.0183 h |  |
| O=C(O)CN(CCN(CC(=O)O)CC(=O)O)CCN(CC(=O)O)CC(=O)O [Diethylenetriaminepentaacetic acid] |  |  |  |  |  |  |  |  |  |  |  |  | final pH-related absorbance ([1]; 0.004 mM): 0.196 ± 0.016; final pH-related absorbance ([1]; 0.036 mM): 0; final pH-related absorbance ([1]; 0.364 mM): 0; rate of pH ([2]; 0.004 mM): 2.08 ± 0.049; rate of pH ([2]; 0.036 mM): 0; rate of pH ([2]; 0.364 mM): 0; final OD630 ([3]; 0.004 mM): 0.439 ± 0.001; final OD630 ([3]; 0.036 mM): 0.311 ± 0.003; final OD630 ([3]; 0.364 mM): 0.21 ± 0.005; onset of ureolytic pH increase ([4]; 0.004 mM): 9.47 ± 0.183 h; onset of ureolytic pH increase ([4]; 0.036 mM): > 15 h; onset of ureolytic pH increase ([4]; 0.364 mM): > 15 h |
| CC(=NO)C(C)=NO [Dimethylglyoxime] |  |  |  |  |  |  |  |  |  |  |  |  | final pH-related absorbance ([1]; 0.03 mM): 0.183 ± 0.0026; final pH-related absorbance ([1]; 0.3 mM): 0.142 ± 0.032; final pH-related absorbance ([1]; 3.01 mM): 0.466 ± 0.023; rate of pH ([2]; 0.03 mM): 2.093 ± 0.018; rate of pH ([2]; 0.3 mM): 1.96 ± 0.3; rate of pH ([2]; 3.01 mM): 0.0904 ± 0.0046; final OD630 ([3]; 0.03 mM): 0.443 ± 0.007; final OD630 ([3]; 0.3 mM): 0.377 ± 0.017; final OD630 ([3]; 3.01 mM): 0; onset of ureolytic pH increase ([4]; 0.03 mM): 9.565 ± 0.012 h; onset of ureolytic pH increase ([4]; 0.3 mM): 12.8 ± 0.6 h; onset of ureolytic pH increase ([4]; 3.01 mM): 0 min |
| C=C(CC)C(=O)c1ccc(OCC(=O)O)c(Cl)c1Cl [Ethacrynic acid] | 0.139 ± 0.0023 | 0.128 ± 0.018 | 0.294 ± 0.0059 | 1.57 ± 0.073 | 1.49 ± 0.037 | 0.033 ± 0.0006 | 0.437 ± 0.0002 | 0.44 ± 0.0048 | 0 | 11.62 ± 0.06 | 12.6 ± 1.67 | 0 min |  |
| CC(O)(P(=O)(O)O)P(=O)(O)O [Etidronic acid monohydrate] | 0.323 ± 0.0087 | 0.28 ± 0.005 | 0 | 1.63 ± 0.035 | 1.597 ± 0.013 | 0 | 0.432 ± 0.0054 | 0.443 ± 0.0026 | 0 | 11.23 ± 0.0383 | 11.2 ± 0.0417 | > 15 h |  |
| NC=O [Formamide] | 0.168 ± 0.021 | 0.172 ± 0.027 | 0.165 ± 0.021 | 2.01 ± 0.1 | 2.24 ± 0.1 | 2.188 ± 0.02 | 0.513 ± 0.0092 | 0.512 ± 0.0096 | 0.513 ± 0.008 | 9.17 ± 0.367 | 9.33 ± 0.25 | 9.53 ± 0.125 h |  |
| O=C(O)c1cc(O)c(O)c(O)c1 [Gallic acid monohydrate] |  |  |  |  |  |  |  |  |  |  |  |  | final pH-related absorbance ([1]; 0.056 mM): 0.19 ± 0.0003; final pH-related absorbance ([1]; 0.56 mM): 0.191 ± 0.028; rate of pH ([2]; 0.056 mM): 2.0688 ± 0.0018; rate of pH ([2]; 0.56 mM): 1.8 ± 0.028; final OD630 ([3]; 0.056 mM): 0.454 ± 0.007; final OD630 ([3]; 0.56 mM): 0.45 ± 0.003; onset of ureolytic pH increase ([4]; 0.056 mM): 9.382 ± 0.0617 h; onset of ureolytic pH increase ([4]; 0.56 mM): 10.3 ± 0.3 h |
| N=C(N)N [Guanidine hydrochloride] | 0.249 ± 0.007 | 0.27 ± 0.011 | 0.286 ± 0.009 | 1.94 ± 0.086 | 2.02 ± 0.066 | 2.03 ± 0.17 | 0.498 ± 0.006 | 0.505 ± 0.006 | 0.503 ± 0.004 | 7.22 ± 0.107 | 7.08 ± 0.095 | 7.26 ± 0.2 h |  |
| Oc1ccc(O)cc1 [Hydroquinone] | 0.155 ± 0.0064 | 0.157 ± 0.0044 |  | 1.78 ± 0.19 | 1.58 ± 0.096 |  | 0.408 ± 0.021 | 0.423 ± 0.038 |  | 11.3 ± 0.118 | 11.7 ± 0.667 |  |  |
| NC(=O)NO [Hydroxyurea] | 0.258 ± 0.007 | 0.198 ± 0.029 | 0 | 1.89 ± 0.32 | 1.01 ± 0.031 | 0 | 0.483 ± 0.006 | 0.452 ± 0.031 | 0.262 ± 0.002 | 7.27 ± 0.108 | 7.36 ± 0.417 | > 15 h |  |
| c1c[nH]cn1 [Imidazole] | 0.163 ± 0.0003 | 0.164 ± 0.0067 | 0.169 ± 0.0015 | 1.457 ± 0.0067 | 1.48 ± 0.046 | 1.43 ± 0.029 | 0.423 ± 0.0002 | 0.42 ± 0.0034 | 0.439 ± 0.0039 | 9.38 ± 0.0583 | 9.42 ± 0.118 | 10.32 ± 0.0533 h |  |
| O=C(O)CNCC(=O)O [Iminodiacetic acid] |  |  |  |  |  |  |  |  |  |  |  |  | final pH-related absorbance ([1]; 0.008 mM): 0.184 ± 0.004; final pH-related absorbance ([1]; 0.08 mM): 0.211 ± 0.017; final pH-related absorbance ([1]; 0.802 mM): 0.209 ± 0.007; rate of pH ([2]; 0.008 mM): 2.086 ± 0.011; rate of pH ([2]; 0.08 mM): 2.13 ± 0.052; rate of pH ([2]; 0.802 mM): 1.82 ± 0.045; final OD630 ([3]; 0.008 mM): 0.44 ± 0.003; final OD630 ([3]; 0.08 mM): 0.429 ± 0.003; final OD630 ([3]; 0.802 mM): 0.373 ± 0.011; onset of ureolytic pH increase ([4]; 0.008 mM): 9.425 ± 0.0533 h; onset of ureolytic pH increase ([4]; 0.08 mM): 9.377 ± 0.025 h; onset of ureolytic pH increase ([4]; 0.802 mM): 11.1 ± 0.317 h |
| N=C(N)NCCC[C@H](N)C(=O)O [L-arginine] |  |  |  |  |  |  |  |  |  |  |  |  | final pH-related absorbance ([1]; 0.094 mM): 0.23 ± 0.0075; final pH-related absorbance ([1]; 0.943 mM): 0.238 ± 0.0024; final pH-related absorbance ([1]; 9.43 mM): 0.307 ± 0.0066; rate of pH ([2]; 0.094 mM): 1.72 ± 0.018; rate of pH ([2]; 0.943 mM): 1.69 ± 0.018; rate of pH ([2]; 9.43 mM): 1.66 ± 0.021; final OD630 ([3]; 0.094 mM): 0.472 ± 0.003; final OD630 ([3]; 0.943 mM): 0.52 ± 0.0037; final OD630 ([3]; 9.43 mM): 0.519 ± 0.0064; onset of ureolytic pH increase ([4]; 0.094 mM): 10.601 ± 0.004 h; onset of ureolytic pH increase ([4]; 0.943 mM): 9.309 ± 0.0733 h; onset of ureolytic pH increase ([4]; 9.43 mM): 9.875 ± 0.0417 h |
